From patent US20220135567A1, “TYK2 PSEUDOKINASE LIGANDS” (Ventyx Biosciences, Inc., priority 2019, published 2022)

Tested on: IFN-a/Jak1Tyk2
Assay: Co-stimulation assay in lysed whole blood: IFNa (JAK1/TYK2) stimulated STAT1 phosphorylation
Type: cell-based
Details: lysed human whole blood, IFNa 100 ng/mL + GM-CSF 10 ng/mL, pSTAT1 by flow cytometry
Experimental: Dilute RBC lysis buffer to 1× in distilled water. Add 2 mL blood to 38 mL of 1×RBC-lysis buffer. Incubate for 15 mins at RT, in dark. Spin at 300 g, 5 mins, to collect the pellet. Re-lyse if necessary. Re-suspend pellet in 5 mL of cRPMI.
Aliquot 80 μL of lysed human blood in to wells of 96 deep-well plate. Add 10 μl of (10× conc.) of different concentrations of compounds to all wells except controls (unstained and unstimulated) and mix it with the help of 100 uL multichannel. Add 10 uL of RPMI media in controls. For dilution of compounds and dilution range please refer Appendix. Incubate on water bath or CO2 incubator for 1 hour at 37° C. Add 10 μl of (10× conc.) of cytokine mix (GM-CSF and IFNa) (final conc. 10 ng/mL of GM-CSF and 100 ng/mL of IFNa) to each well except unstimulated and unstained controls and incubate further for 20 minutes on water bath at 37° C.
Add 900 μL of prewarmed 1× Fix/Lyse solution (Appendix) and mix it properly using 1000 μl multichannel, incubate further on water bath at 37° C. for 10 minutes (which includes time of addition). Centrifuge at 800×g for 5 minutes at 40° C.; remove 900 uL of supernatant and add 900 μL of 1×PBS. Centrifuge at 800×g for 5 minutes at 40° C., remove 900 μL of supernatant. Wash one more time with 900 μL of PBS (optional) and resuspend pellets in 100 uL of PBS.
Disrupt the pellet by gentle tapping and resuspend in 1000 μL of BD Phosflow Perm Buffer III and incubate plate on ice for 30 minutes. Centrifuge plate at 800×g for 5 minutes at 40° C. Wash two more times with 1000 μL of BD Pharmingen Stain Buffer.
Disrupt the pellet by gentle tapping. Resuspend pellets in 100 uL of Stain Buffer and add 5 μL of pSTAT5_AF488 Ab and 5 uL of pSTAT1_PE in all wells except unstained control and mix properly using 200 μl multichannel, incubate overnight at […]. Add 900 μL of wash buffer and centrifuge at 1800 rpm for 3 minutes at […]. Wash one more time with 1000 μL of BD Pharmingen Stain Buffer. Finally resuspend the pellet in 300 uL of BD Pharmingen Stain Buffer. Transfer the cells to 96-well v-bottom plate and acquire the cells in Beckman Coulter CytExpert. Acquiring cells in Flow Cytometer: Keep the threshold value to 250 and cell concentration should not exceed 100-500 cells/μL. Acquire at least 5,000-10,000 cells.
Cytokine dilution: 1) GM-CSF Stock at 100 ug/mL. Prepare an intermediate dilution of 1 ug/mL by adding 2 uL of stock into 198 uL of cRPMI. Further dilute to 100 ng/mL by adding 100 uL of the intermediate stock to 900 uL of cRPMI. 2) IFNa Stock at 200 ug/mL. Dilute IFNa stock 1:200 by adding 5 uL of stock into the 1000 uL of 100 ng/mL GM-CSF working stock as above to give a combined working stock of 1000 ng/mL of IFNa and 100 ng/mL GM-CSF (10×). Keep it on ice until used.
Lyse/Fix buffer preparation: Dilute 5× Lyse/Fix buffer to 1× using MQ water and keep at 37° C. until used.
BD Phosflow perm buffer III: Keep on ice/fridge.

Row | SMILES | IC50 (20 minutes) [nM] | IC50 (20 min) [nM]
1 | CNc1cc(Nc2cc(C)cc(C)c2)nc2c(C(N)=O)cnn12 [Compound 10, 5-((3,5-dimethylphenyl)amino)-7-(methylamino)pyrazole[1,5-a]pyrimidine-3-carboxamide] | < 100 | 
2 | CNc1cc(Nc2ccccc2OC)nc2c(C(=O)NC3CC3)cnn12 [Compound 16, N-cyclopropyl-5-((2-methoxyphenyl)amino)-7-(methylamino)pyrazolo[1,5-a]pyrimidine-3-carboxamide] |  | < 100
3 | CNc1cc(Nc2cc(F)cc(F)c2OC)nc2c(C(=O)NC3CC3)cnn12 [Compound 19] | < 100 | 
4 | CNc1cc(Nc2cccc3c2OCCO3)nc2c(C(=O)NC3CC3)cnn12 [Compound 20, N-cyclopropyl-5-((2,3-dihydrobenzo[b][1,4]dioxin-5-yl)amino)-7-(methylamino)pyrazolo[1,5-a]pyrimidine-3-carboxamide] |  | < 100
5 | CNc1cc(Nc2ccccc2OC)nc2c(C(=O)NCC(C)(C)CO)cnn12 [Compound 22, N-(3-hydroxy-2,2-dimethylpropyl)-5-((2-methoxyphenyl)amino)-7-(methylamino)pyrazolo[1,5-a]pyrimidine-3-carboxamide] |  | < 100
6 | CNc1cc(Nc2cc(F)cc(F)c2OC)nc2c(C(=O)NCC(C)(C)CO)cnn12 [Compound 23, 5-((3,5-difluoro-2-methoxyphenyl)amino)-N-(3-hydroxy-2,2-dimethylpropyl)-7-(methylamino)pyrazolo[1,5-a]pyrimidine-3-carboxamide] |  | < 100
7 | CNc1cc(Nc2c(F)c(F)cc(F)c2F)nc2c(C(=O)NCC(C)(C)CO)cnn12 [Compound 24, N-(3-hydroxy-2,2-dimethylpropyl)-7-(methylamino)-5-((2,3,5,6-tetrafluorophenyl)amino)pyrazolo[1,5-a]pyrimidine-3-carboxamide] |  | < 100
8 | CNc1cc(Nc2cccc3c2OCCO3)nc2c(C(=O)NCC(C)(C)CO)cnn12 [Compound 25, 5-((2,3-dihydrobenzo[b][1,4]dioxin-5-yl)amino)-N-(3-hydroxy-2,2-dimethylpropyl)-7-(methylamino)pyrazolo[1,5-a]pyrimidine-3-carboxamide] |  | < 100
9 | CNc1cc(Nc2cc(F)cc(F)c2OC)nc2c(C(=O)NCC(C)(O)CO)cnn12 (stereo not drawn) [Compound 26, 5-((3,5-difluoro-2-methoxyphenyl)amino)-N-(2,3-dihydroxy-2-methylpropyl)-7-(methylamino)pyrazolo[1,5-a]pyrimidine-3-carboxamide] |  | < 100
10 | CNc1cc(Nc2ccc3c(c2)OCCO3)nc2c(C(=O)NC3CC3)cnn12 [Compound 27, N-cyclopropyl-5-((2,3-dihydrobenzo [b][1,4]dioxin-6-yl)amino)-7-(methylamino)pyrazolo[1,5-a]pyrimidine-3-carboxamide] |  | < 100
11 | CNc1cc(Nc2cccc(C(=O)OC)c2)nc2c(C(=O)NC3CC3)cnn12 [Compound 29, methyl 3-((3-(cyclopropylcarbamoyl)-7-(methylamino)pyrazolo[1,5-a]pyrimidin-5-yl)amino)benzoate] |  | 100 to 1000
12 | CNc1cc(Nc2cccn(-c3cc(C)n(C)n3)c2=O)nc2c(C(=O)NC3CC3)cnn12 [Compound 32, N-cyclopropyl-5-((1-(1,5-dimethyl-1H-pyrazol-3-yl)-2-oxo-1,2-dihydropyridin-3-yl)amino)-7-(methylamino)pyrazolo[1,5-a]pyrimidine-3-carboxamide] |  | 100 to 1000
13 | CNc1cc(Nc2cccn(-c3ccccn3)c2=O)nc2c(C(=O)NC3CC3)cnn12 [Compound 33, N-cyclopropyl-7-(methylamino)-5-((2-oxo-2H-[1,2′-bipyridin]-3-yl)amino)pyrazolo[1,5-a]pyrimidine-3-carboxamide] |  | < 100
14 | CNc1cc(Nc2ccccc2-n2cccn2)nc2c(C(=O)NC3CC3)cnn12 [Compound 34, 5-((2-(1H-pyrazol-1-yl)phenyl)amino)-N-cyclopropyl-7-(methylamino)pyrazolo[1,5-a]pyrimidine-3-carboxamide] |  | > 300
15 | CNc1cc(Nc2cscc2C(=O)O)nc2c(C(=O)NC3CC3)cnn12 [Compound 36, 4-((3-(cyclopropylcarbamoyl)-7-(methylamino)pyrazolo[1,5-a]pyrimidin-5-yl)amino)thiophene-3-carboxylic acid] |  | > 300
16 | CCOC(=O)c1nscc1Nc1cc(NC)n2ncc(C(=O)NC3CC3)c2n1 [Compound 38, ethyl 4-((3-(cyclopropylcarbamoyl)-7-(methylamino)pyrazolo[1,5-a]pyrimidin-5-yl)amino)isothiazole-3-carboxylate] |  | > 300
17 | CNc1cc(Nc2cn(C)nc2C(=O)Nc2ccc(N(C)C)cc2)nc2c(C(=O)NC3CC3)cnn12 [Compound 41, N-cyclopropyl-5-((3-((4-(dimethylamino)phenyl)carbamoyl)-1-methyl-1H-pyrazol-4-yl)amino)-7-(methylamino)pyrazolo[1,5-a]pyrimidine-3-carboxamide] |  | < 100
18 | CCOC(=O)c1nn(C)cc1Nc1cc(NC)n2ncc(C(=O)NC3CC3)c2n1 [Compound 42, ethyl 4-((3-(cyclopropylcarbamoyl)-7-(methylamino)pyrazolo[1,5-a]pyrimidin-5-yl)amino)-1-methyl-1H-pyrazole-3-carboxylate] |  | 100 to 1000
19 | CNC(=O)c1nscc1Nc1cc(NC)n2ncc(C(=O)NC3CC3)c2n1 [Compound 43, 4-((3-(cyclopropylcarbamoyl)-7-(methylamino)pyrazolo[1,5-a]pyrimidin-5-yl)amino)-N-methylisothiazole-3-carboxamide] |  | < 100

Continued, values first:

Row | IC50 (20 minutes) [nM] | IC50 (20 min) [nM] | SMILES
20 | 1000 to 10000 |  | CNC(=O)c1cnn2c(NC)cc(Nc3cc(C)cc(C)c3)nc12 [Compound 9, 5-((3,5-dimethylphenyl)amino)-N-methyl-7-(methylamino)pyrazole [1,5-a]pyrimidine-3-carboxamide]
21 | < 100 |  | CNc1cc(Nc2cc(F)cc(F)c2OC)nc2c(C(N)=O)cnn12 [Compound 13, 5-((3,5-difluoro-2-methoxyphenyl)amino)-7-(methylamino)pyrazole[1,5-a]pyrimidine-3-carboxamide]
22 |  | < 100 | CNc1cc(Nc2c(F)c(F)cc(F)c2F)nc2c(C(=O)NC3CC3)cnn12 [Compound 17, N-cyclopropyl-7-(methylamino)-5-((2,3,5,6-tetrafluorophenyl)amino)pyrazolo[1,5-a]pyrimidine-3-carboxamide]
23 |  | 100 to 1000 | CNc1cc(Nc2ccccc2C(=O)OC)nc2c(C(=O)NC3CC3)cnn12 [Compound 28, methyl 2-((3-(cyclopropylcarbamoyl)-7-(methylamino)pyrazolo[1,5-a]pyrimidin-5-yl)amino)benzoate]
24 |  | > 300 | CNc1cc(Nc2cccnc2C)nc2c(C(=O)NC3CC3)cnn12 [Compound 31, N-cyclopropyl-7-(methylamino)-5-((2-methylpyridin-3-yl)amino)pyrazolo[1,5-a]pyrimidine-3-carboxamide]
25 |  | > 300 | CCOC(=O)c1cscc1Nc1cc(NC)n2ncc(C(=O)NC3CC3)c2n1 [Compound 37, ethyl 4-((3-(cyclopropylcarbamoyl)-7-(methylamino)pyrazolo[1,5-a]pyrimidin-5-yl)amino)thiophene-3-carboxylate]
26 |  | > 300 | CNc1cc(Nc2csnc2C(=O)OC)nc2c(C(=O)NC3CC3)cnn12 [Compound 39, methyl 4-((3-(cyclopropylcarbamoyl)-7-(methylamino)pyrazolo[1,5-a]pyrimidin-5-yl)amino)isothiazole-3-carboxylate]
27 |  | < 100 | CNc1cc(Nc2cccn(-c3ccc(OC)nn3)c2=O)nc2c(C(=O)NC3CC3)cnn12 [Compound 40, N-cyclopropyl-5-((1-(6-methoxypyridazin-3-yl)-2-oxo-1,2-dihydropyridin-3-yl)amino)-7-(methylamino)pyrazolo[1,5-a]pyrimidine-3-carboxamide]
